Reference: patent US20170198363A1, “COMPOSITIONS AND METHODS FOR DETECTION OF SMALL MOLECULES” (COLORADO STATE UNIVERSITY RESEARCH FOUNDATION, priority 2015, published 2017)

Experiments:
[1] = tested on: yeast; test: Progesterone toxicity to yeast cells
[2] = target: T1, degron-G-PRO1-V (Saccharomyces cerevisiae, UniProt P0CY08); test: HIS3 reporter growth assay, strain PJ69-4a; format: cell-based, yeast; conditions: HIS3 reporter strain PJ69-4a
T1 construct: expressed in transfected cells; host or cells: S. cerevisiae strain PJ69-4a transformed with a p16C (p416CYC) plasmid

[3] = tested on: plant cells; test: Progesterone toxicity to plant cells (protoplasts)
[4] = tested on: plant biosensor (G-DIG1-V-Matα2); test: Induction of the plant biosensor by steroids; format: in vivo, Arabidopsis thaliana; conditions: transgenic Arabidopsis
[5] = Progesterone biosensor luciferase assay in plant protoplasts; format: cell-based; conditions: 25 μM progesterone, L77F mutation in the Gal4 DBD
[6] = PRO0 binding of progesterone
[7] = cited from earlier work
[8] = cited from earlier work; remark: listed apart in the source

CC(=O)[C@H]1CC[C@H]2[C@@H]3CCC4=CC(=O)CC[C@]4(C)[C@H]3CC[C@]12C [Progesterone, progesterone]
level at which toxic, leading to substantial cell death [1]: ≥ 100 µM | stimulation of growth of degron-G-PRO1-V [2]: stimulated | concentration that seems to be toxic to the plant cells [3]: 250 µM

C[C@H]1O[C@@H](O[C@H]2[C@@H](O)C[C@H](O[C@H]3[C@@H](O)C[C@H](O[C@H]4CC[C@@]5(C)[C@H](CC[C@@H]6[C@@H]5C[C@@H](O)[C@]5(C)[C@@H](C7=CC(=O)OC7)CC[C@]65O)C4)O[C@@H]3C)O[C@@H]2C)C[C@H](O)[C@@H]1O [digoxin]
induction of the plant biosensor [4]: capable of inducing

B1: PRO2: progesterone binding sensor protein, SEQ ID NO:17, tested as TF-biosensor in plant protoplasts (protein)
chain: MNAKEIVVHSLRLLENGDARGWSDLFHPEGVLEFPYAPPGHKTRFEGRETIWAHMRLFPEYVTVRFTDVQFYETADPDLAIGEFHGDGVLTASGGMLAFDFIAVWRTRDGQILQYRVFYNPLRELEALGGVEAAAKIVQGAGSLE
increase in luciferase expression over background levels [5]: ~3 fold

B2: PRO0: progesterone binder from three rationally designed binding site mutations in DIG0; SEQ ID NO:13 (protein)
chain: MNAKEIVVHSLRLLENGDARGWSDLFHPEGVLEFPYAPPGHKTRFEGRETIWAHMRLFPEYVTVRFTDVQFYETADPDLAIGEFHGDGVLTASGGKLAFDFIAVWRTRDGQILLYRVFFNPLRVLEALGGVEAAAKIVQGAGSLE
affinity for progesterone [6]: nanomolar

B3: DIG10.3 (protein)
chain: MNAKEIVVHSLRLLENGDARGWSDLFHPEGVLEYPYAPPGHKTRFEGRETIWAHMRLFPEYVTVRFTDVQFYETADPDLAIGEFHGDGVLTASGGKLAYDYIAVWRTRDGQILLYRVFFNPLRVLEALGGVEAAAKIVQGAGSLE
affinity for digoxin [7]: picomolar | affinity for digoxigenin [8]: picomolar
